Patent US20260285850A1, “SUBSTITUTED OXAZOLIDINONES AND IMIDAZOLINONES AS HERBICIDES” (FMC CORPORATION, priority 2023, published 2026)

Columns and labels:
Type in all cases: in vivo
[1] = system: barnyardgrass (Echinochloa crus-galli); experiment: Test A preemergence soil spray, visual injury rating 0-100; conditions: 10 days
How it was run: (§1)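 Directed preemergence spray onto seeded soil or postemergence spray onto 2-10 cm plants (loam plus sand); compound carried in surfactant-containing non-phytotoxic solvent. Injury rated by eye after 10 d greenhouse growth; 0 = no effect, 100 = complete control.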

[2] = system: blackgrass (Alopecurus myosuroides); experiment: as above; conditions: 10 days
How it was run: as §1

corn (Zea mays) [3] = experiment: as above; conditions: 10 days
How it was run: as §1

[4] = system: green foxtail (Setaria viridis); experiment: as above; conditions: 10 days
How it was run: as §1

kochia (Bassia scoparia) [5] = experiment: as above; conditions: 10 days
How it was run: as §1

[6] = system: oat, wild (wild oat, Avena fatua); experiment: as above; conditions: 10 days
How it was run: as §1

[7] = system: palmer (palmer amaranth, palmer pigweed, Amaranthus palmeri); experiment: as above; conditions: 10 days
How it was run: as §1

[8] = system: ragweed (common ragweed, Ambrosia artemisiifolia); experiment: as above; conditions: 10 days
How it was run: as §1

[9] = system: ryegrass, Italian (italian ryegrass, Lolium multiflorum); experiment: as above; conditions: 10 days
How it was run: as §1

soybean (Glycine max) [10] = experiment: as above; conditions: 10 days
How it was run: as §1

[11] = system: wheat (Triticum aestivum); experiment: as above; conditions: 10 days
How it was run: as §1

[12] = system: barnyardgrass (Echinochloa crus-galli); experiment: Test A postemergence application, visual injury rating 0-100
How it was run: as §1

[13] = system: blackgrass (Alopecurus myosuroides); experiment: as above
How it was run: as §1

corn (Zea mays) [14] = experiment: as above
How it was run: as §1

[15] = system: galium (catchweed bedstraw, Galium aparine); experiment: as above
How it was run: as §1

[16] = system: green foxtail (Setaria viridis); experiment: as above
How it was run: as §1

[17] = system: horseweed (Erigeron canadensis); experiment: as above
How it was run: as §1

kochia (Bassia scoparia) [18] = experiment: as above
How it was run: as §1

[19] = system: oat, wild (wild oat, Avena fatua); experiment: as above
How it was run: as §1

[20] = system: palmer (palmer amaranth, palmer pigweed, Amaranthus palmeri); experiment: as above
How it was run: as §1

[21] = system: ragweed (common ragweed, Ambrosia artemisiifolia); experiment: as above
How it was run: as §1

[22] = system: ryegrass, Italian (italian ryegrass, Lolium multiflorum); experiment: as above
How it was run: as §1

soybean (Glycine max) [23] = experiment: as above
How it was run: as §1

[24] = system: wheat (Triticum aestivum); experiment: as above
How it was run: as §1

[25] = system: barnyardgrass (Echinochloa crusgalli); experiment: Test B flooded paddy test, visual plant response rating 0-100; conditions: 250 g ai/ha, Flood, applied to paddy water, evaluated after 13 days
How it was run: (§2)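 Plants were grown to the 2-leaf stage, then pots were flooded to 3 cm above the soil and compound was applied directly to the paddy water, with that depth kept throughout.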

[26] = system: ducksalad (Heteranthera limosa); experiment: as above; conditions: 250 g ai/ha, Flood, applied to paddy water, evaluated after 13 days
How it was run: as §2

rice (Oryza sativa) = experiment: as above; conditions: 250 g ai/ha, Flood, applied to paddy water, evaluated after 13 days
How it was run: as §2

[27] = system: sedge, umbrella (small-flower umbrella sedge, Cyperus difformis); experiment: as above; conditions: 250 g ai/ha, Flood, applied to paddy water, evaluated after 13 days
How it was run: as §2

[28] = 62 g ai/ha, 0 = no effect, 100 = complete control
[29] = 62 g ai/ha, postemergence, 10 days, 0 = no effect, 100 = complete control
[30] = Postemergence, 16 g ai/ha, greenhouse 10 days, 0 no effect, 100 complete control

CC1(C(=O)NC2CC=C(C(=O)NS(=O)(=O)C(C)(C)C)C2)CN(c2cc(F)cc(F)c2)C(=O)O1 (racemic) [Compound 91]
Barnyardgrass plant response rating ([1]; 16 g ai/ha, 0 to 100 scale): 0 | Barnyardgrass plant response rating (0-100) [1, 28]: 10 | Blackgrass plant response rating ([2]; 16 g ai/ha, 0 to 100 scale): 0 | Blackgrass plant response rating (0-100) [2, 28]: 0 | Corn plant response rating (corn (Zea mays) [3]; 16 g ai/ha, 0 to 100 scale): 0 | Corn plant response rating (0-100) (corn (Zea mays) [3]; [28]): 0 | Foxtail, Green plant response rating ([4]; 16 g ai/ha, 0 to 100 scale): 0 | Foxtail, Green plant response rating (0-100) [4, 28]: 0 | Kochia plant response rating (kochia (Bassia scoparia) [5]; 16 g ai/ha, 0 to 100 scale): 0 | Kochia plant response rating (0-100) (kochia (Bassia scoparia) [5]; [28]): 0 | Oat, Wild plant response rating ([6]; 16 g ai/ha, 0 to 100 scale): 0 | Oat, Wild plant response rating (0-100) [6, 28]: 0 | Pigweed, Palmer plant response rating ([7]; 16 g ai/ha, 0 to 100 scale): 0 | Pigweed, Palmer plant response rating (0-100) [7, 28]: 0 | Ragweed plant response rating ([8]; 16 g ai/ha, 0 to 100 scale): 0 | Ragweed plant response rating (0-100) [8, 28]: 0 | Ryegrass, Italian plant response rating ([9]; 16 g ai/ha, 0 to 100 scale): 0 | Ryegrass, Italian plant response rating (0-100) [9, 28]: 0 | Soybean plant response rating (soybean (Glycine max) [10]; 16 g ai/ha, 0 to 100 scale): 0 | Soybean plant response rating (0-100) (soybean (Glycine max) [10]; [28]): 0 | Wheat plant response rating ([11]; 16 g ai/ha, 0 to 100 scale): 0 | Wheat plant response rating (0-100) [11, 28]: 0 | Barnyardgrass plant response rating (0-100) [12, 29]: 40 | Barnyardgrass plant response rating (0 to 100 scale) [12, 30]: 0 | Blackgrass plant response rating (0-100) [13, 29]: 10 | Blackgrass plant response rating (0 to 100 scale) [13, 30]: 0 | Corn plant response rating (0-100) (corn (Zea mays) [14]; [29]): 30 | Corn plant response rating (0 to 100 scale) (corn (Zea mays) [14]; [30]): 0 | Galium plant response rating (0-100) [15, 29]: 10 | Galium plant response rating (0 to 100 scale) [15, 30]: 0 | Foxtail, Green plant response rating (0-100) [16, 29]: 20 | Foxtail, Green plant response rating (0 to 100 scale) [16, 30]: 0 | Horseweed plant response rating (0-100) [17, 29]: 0 | Horseweed plant response rating (0 to 100 scale) [17, 30]: 10 | Kochia plant response rating (0-100) (kochia (Bassia scoparia) [18]; [29]): 40 | Kochia plant response rating (0 to 100 scale) (kochia (Bassia scoparia) [18]; [30]): 0 | Oat, Wild plant response rating (0-100) [19, 29]: 20 | Oat, Wild plant response rating (0 to 100 scale) [19, 30]: 0 | Pigweed, Palmer plant response rating (0-100) [20, 29]: 50 | Pigweed, Palmer plant response rating (0 to 100 scale) [20, 30]: 0 | Ragweed plant response rating (0-100) [21, 29]: 20 | Ragweed plant response rating (0 to 100 scale) [21, 30]: 0 | Ryegrass, Italian plant response rating (0-100) [22, 29]: 40 | Ryegrass, Italian plant response rating (0 to 100 scale) [22, 30]: 0 | Soybean plant response rating (0-100) (soybean (Glycine max) [23]; [29]): 30 | Soybean plant response rating (0 to 100 scale) (soybean (Glycine max) [23]; [30]): 0 | Wheat plant response rating (0-100) [24, 29]: 50 | Wheat plant response rating (0 to 100 scale) [24, 30]: 0 | Plant response rating, Barnyardgrass (0 to 100 scale, 0 is no effect and 100 is complete control) [25]: 0 | Plant response rating, Ducksalad (0 to 100 scale, 0 is no effect and 100 is complete control) [26]: 0 | Plant response rating, Rice (0 to 100 scale, 0 is no effect and 100 is complete control) (rice (Oryza sativa)): 0 | Plant response rating, Sedge, Umbrella (0 to 100 scale, 0 is no effect and 100 is complete control) [27]: 0
